Data on 1 compound can be found in patent US9914910B2, “Methods of preserving and protecting pancreatic beta cells and treating or preventing diabetes by inhibiting NOX-1” (Eastern Virginia Medical School, priority 2013, dated 2018).

In one assay the test system is primary mouse islets. Briefly: Caspase-3 assay (pro-caspase-3 cleavage) after PIC. Type of assay: cell-based. To be noted: 4 hours, up to. The protocol:
Human donor islets were obtained from integrated islet distribution project (http://iidp.coh.org) and cultured in CMRL media (Mediatech, Manassas, Va.). Mouse islets were freshly isolated from 8-week old male C57BL/6J mice (Jackson Laboratory, Bar Harbor, Me.) by common bile duct cannulation and collagenase digestion. Islets were hand picked prior to use.
(§1) A. Caspase-3 Assay: Pro-caspase-3 cleavage was measured using a caspase-3 Assay kit (BD Pharmigen, Franklin Lakes, N.J.) per the manufacturer's instructions; fluorescence being measured (SpectraMax, Molecular Devices, Sunnyvale, Calif.) at excitation 380 nm and emission 440 nm (INS-1) or 460 nm (βTC-3, mouse).

Assay [1] relates to INS-1 cells. Briefly: ROS measurement (DCF-DA) after pro-inflammatory cytokine cocktail (PIC). Type of assay: cell-based, rat. Here is the method:
INS-1 cells were cultured in RPMI-1640 media (Life Technologies, Grand Island, N.Y.) supplemented with 10% fetal calf serum, 1% penicillin/streptomycin, 10 mM Hepes, 2 mM Lglutamine, 1 mM sodium pyruvate, and 0.05 mM 2-mercaptoethanol at 370 C with 5% CO2.
(§2) Cells treated for 1 hour were then washed with PBS prior to addition of 10 μM 6-Carboxy-2′,7′-Dichlorodihydrofluorescein Diacetate, Di(Acetoxymethyl ester) (DCF-DA, Life Technologies) for 30 min at 370 C. Post PBS wash cells were incubated at 370 C for 1 hour. Prior to fluorescence measurement (SpectraMax Molecular Devices, Sunnyvale, Calif.) at excitation 480 nm: emission 530 nm.
(§3) Elevation of cellular ROS in beta-cell lines INS-1 (rat beta-cell line) and βTC-3 (mouse beta-cell line) was evaluated by conversion of fluorescent substrate DCF-DA. Following one hour stimulation with a pro-inflammatory cytokine cocktail (PIC; IL-1β, TNF-α, and IFN-γ) detectable ROS elevated from control levels of 0.05±0.02 and 0.09±0.03 (INS-1 and βTC-3 respectively) to 0.25±0.04 and 0.23±0.03 (INS-1 and βTC-3 respectively). This increase was significant p<0.05 and p<0.01 (INS-1 and βTC-3 respectively).

For assay [2], the system named is MCP-1, IL-12p40, IL-12 p35, IFNγ gene expression in primary mouse islets. Briefly: Cytokine-induced target gene expression (real time PCR). The assay is classed as cell-based. To be noted: NCTT-1 100 nM, ML171 1 μM. The protocol:
(§4) Total RNA was isolated using the RNeasy Mini Kit (Qiagen, Valencia, Calif.) and cDNA prepared using MMLV reverse transcriptase (Life Technologies) and random hexamers (Life Technologies). Jump Start Taq polymerase (Life Technologies) was used in PCR reactions. […] RT-PCR reactions were performed in triplicate (CFX96 Bio-Rad, Hercules, Calif.). Taqman primers (Life Technologies) were also used. Data was normalized to the housekeeping gene GAPDH and analyzed using the 2-ΔΔCT method.
Data is quantitative real time PCR gene expression analysis from triplicate experiments performed in replicate. Fold induction in gene expression over control (non cytokine-treated) islets is graphed.

In assay [3] the test system is NOX-1 gene expression in INS-1 cells. Briefly: PIC-induced NOX-1 gene expression (RT-PCR). Type of assay: cell-based, rat. The settings on record: INS-1, PIC 24 hours. The protocol: as §4
Assay [4] concerns NOX-1 gene expression in primary human donor islets. Briefly: PIC-induced NOX-1 gene expression (RT-PCR). The assay is classed as cell-based. To be noted: 1 μM ML171. Here is the method: as §4
Another assay has as its system human colon cancer cells. To be noted: cited from earlier work.
The subject of assay [5] is βTC-3 cells. Briefly: ROS measurement (DCF-DA) after PIC. Type of assay: cell-based, mouse. To be noted: βTC-3, PIC 1 hour. Here is the method: βTC-3 cells were cultured in DMEM media (Life Technologies, Grand Island, N.Y.) supplemented with 18% fetal calf serum, 1% penicillin/streptomycin, 4 mM L-glutamine, 5.5 mM glucose, and 1 mM sodium pyruvate at 370 C with 5% CO2.
as §2, §3

The next assay deals with T1, NOX-1 (Homo sapiens, UniProt Q9Y5S8).
T1 sequence (Q9Y5S8 1-564): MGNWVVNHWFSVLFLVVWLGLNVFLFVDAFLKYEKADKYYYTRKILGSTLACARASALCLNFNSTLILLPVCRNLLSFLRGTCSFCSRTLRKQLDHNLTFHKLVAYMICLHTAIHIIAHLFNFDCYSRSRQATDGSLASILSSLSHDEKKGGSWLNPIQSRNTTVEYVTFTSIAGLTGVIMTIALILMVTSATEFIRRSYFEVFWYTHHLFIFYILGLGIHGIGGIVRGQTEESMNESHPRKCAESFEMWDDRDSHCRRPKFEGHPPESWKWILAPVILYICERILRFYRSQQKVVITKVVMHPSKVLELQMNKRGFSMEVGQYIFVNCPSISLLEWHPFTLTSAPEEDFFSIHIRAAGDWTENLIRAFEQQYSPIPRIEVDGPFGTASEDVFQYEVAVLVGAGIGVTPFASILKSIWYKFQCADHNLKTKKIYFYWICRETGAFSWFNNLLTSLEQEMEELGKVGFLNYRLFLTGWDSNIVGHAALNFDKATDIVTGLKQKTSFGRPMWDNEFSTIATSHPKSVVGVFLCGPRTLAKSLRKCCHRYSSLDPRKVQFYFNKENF
T1 sequence (P13498 1-195 partner): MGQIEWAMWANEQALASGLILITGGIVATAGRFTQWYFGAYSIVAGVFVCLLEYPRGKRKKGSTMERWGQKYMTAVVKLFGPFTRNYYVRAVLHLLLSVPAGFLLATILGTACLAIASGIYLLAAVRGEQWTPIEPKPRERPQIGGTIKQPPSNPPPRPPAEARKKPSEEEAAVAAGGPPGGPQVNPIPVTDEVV
To be noted: cited from earlier work.

Assay [6] relates to INS-1 cells. Briefly: Apoptosis by YO-PRO-1 fluorescence microscopy after PIC. Type of assay: cell-based, rat. The settings on record: INS-1, PIC 24 hours, p<0.001. Here is the method:
B. Fluorescence microscopy: Stimulated cells or islets were washed in cold PBS, and incubated for 30 mins at 40 C with cold PBS containing 1 μg/mL propidium iodide and 0.1 μM YO-PRO-1 (Life Technologies). For cell lines, five randomly fields per well were analyzed. For islets, all islets (>1000 um2 in size) were analyzed. Densitometric fluorescent value for YO-PRO-1 (green channel) was normalized to background and expressed proportional to cell occupied area (phase contrast). Images captured across three channels with Axiophot (Zeiss, Jena, Germany) with Axiovision (Zeiss) image analysis.

Assay [7] relates to NOX-1 gene expression in βTC-3 cells. Briefly: PIC-induced NOX-1 gene expression (RT-PCR). To be noted: βTC-3, PIC 24 hours. The assay is classed as cell-based, mouse. The protocol:
as §4

In assay [8] the test system is βTC-3 cells. Briefly: Caspase-3 assay (pro-caspase-3 cleavage) after PIC. The assay is classed as cell-based, mouse. To be noted: βTC-3, PIC 4 hours, up to. Here is the method:
as §1

Molecules are shown by their SMILES.

As to `CC(=O)c1ccc2c(c1)Nc1ccccc1S2` [ML171, 2-acetylphenothiazine], the results for the “block of PIC-induced activation of caspase-3” value with primary mouse islets (1 μM), in the assay with primary mouse islets (10 μM) and in the assay on βTC-3 cells [8] were “up to 100%±7%”, ≤ 100%±3% and ≤ 97%±3.1%, respectively. For the same compound, the “inhibition of PIC-induced ROS (DCFDA conversion)” value is reported as “dose dependent inhibition” in the assay on INS-1 cells [1] (INS-1, PIC 1 hour) and “dose dependent inhibition” in the assay on βTC-3 cells [5]. In addition, in the assay on INS-1 cells [1] (analogous results for INS-1 and βTC-3), the “concentration of maximal protection from PIC-induced ROS” value stood at 10 µM. In [2], the “induction of gene IFNγ by PIC” value is “attenuated”. In addition, the “induction of gene IL-12 p35 by PIC” value in assay [2] is recorded as “attenuated”. The “induction of gene IL-12p40 by PIC” value in assay [2] is “attenuated”. Further, in assay [2], the “induction of gene MCP-1 by PIC” value is “attenuated”. In addition, the figures for the “inhibition of PIC-induced expression of NOX-1 gene” value in [3] and in assay [7] were 33% and 23%, respectively. Moreover, the “inhibition of PIC-induced expression of NOX-1” value in [4] turned out to be 50%. Moreover, the “NOX-1 activity in human colon cancer cells” value in the assay on human colon cancer cells is listed as “inhibits NOX-1 activity”. Moreover, the “inhibition of NOX-1 (in words)” value on NOX-1 is given as “nanomolar inhibitor”. Further, the “specificity for NOX-1 inhibition over NOX-2 inhibition and other NOX isoforms” value on NOX-1 is reported as “greater than 30 fold”. Also, the “PIC-induced apoptosis (YO-PRO-1)” value with INS-1 cells [6] is “apoptosis was significantly decreased”.
